# Assay results: patent US20220151274A1, “PREPARATIONS WITH C-METHYL FLAVONOIDS” (BRAIN AG, priority 2018, published 2022)
# Assay: Tasting of high-purity Pinoquercetin + potassium chloride (KCl)
# Format: in vivo
# Details: for bitterness of KCl is reduced by the product, share of responses: 14 responses
# Procedure: The sensory evaluation of the samples was performed twice by a team of seven experienced assessors.
# [1] = 10 μM (3.2 ppm) with 1.5% potassium chloride in spring water
# [2] = 25 μM (8 ppm) with 1.5% potassium chloride in spring water
# [3] = 50 μM (16 ppm) with 1.5% potassium chloride in spring water
structure (smiles),measurement,setting,value
Cc1c(O)cc2oc(-c3ccc(O)c(O)c3)c(O)c(=O)c2c1O [Pinoquercetin],"bitterness of KCl is reduced by the product, share of responses",1 μM (0.3 ppm) with 1.5% potassium chloride in spring water,product in 64% of responses average
same,dominant flavour,[1],sure dominant flavour: saltiness
same,"bitterness of KCl is reduced by the product, share of responses",[1],product in 64% of responses average
same,dominant flavour,[2],flavour: saltiness
same,"bitterness of KCl is reduced by the product, share of responses",[2],product in 64% of responses average
same,dominant flavour,[3],flavour: saltiness
same,"bitterness of KCl is reduced by the product, share of responses",[3],product in 71% of responses average
